Values after ≈ are worked out from the molar mass of the structure shown. Square brackets hold non-standard residues; d marks the D form. Peptide text beside a SMILES is read from it. * marks the point of attachment. Pentadecanoyl = CCCCCCCCCCCCCCC(=O)*; NMeR = CN[C@@H](CCCNC(=N)N)C(=O)O; Undecanoyl = CCCCCCCCCCC(=O)*; NMeK = CN[C@@H](CCCCN)C(=O)O
Key:
[1] = Hemolytic activity in human RBC assessed as hemolysis; assay type: toxicity, cell-based, Erythrocyte; settings: red blood cells
Staphylococcus aureus [2] = assay: Antibacterial activity against Staphylococcus aureus ATCC 25923 assessed as reduction in bacterial growth incubated for 24 hrs by serial dilution method; assay type: functional
Escherichia coli [3] = assay: Antibacterial activity against Escherichia coli ATCC 25922 assessed as bacterial growth inhibition measured after 48 hrs by resazurin assay; assay type: functional
[4] = Hemolytic activity in mouse Red blood cells incubated for 1 hr by microplate reader assay; assay type: toxicity, cell-based, Erythrocyte; settings: red blood cells
Staphylococcus aureus [5] = assay: Antibacterial activity against Staphylococcus aureus ATCC 25923 assessed as reduction in bacterial cell growth measured for 18 hrs by Mueller-Hinton broth based two-fold serial dilution method; assay type: functional
Bacillus subtilis [6] = assay: Antibacterial activity against Bacillus subtilis ATCC 23857 assessed as reduction in bacterial cell growth measured for 18 hrs by Mueller-Hinton broth based two-fold serial dilution method; assay type: functional
Escherichia coli [7] = assay: Antibacterial activity against Escherichia coli ATCC 25922 assessed as reduction in bacterial cell growth measured for 18 hrs by Mueller-Hinton broth based two-fold serial dilution method; assay type: functional
Pseudomonas aeruginosa [8] = assay: Antibacterial activity against Pseudomonas aeruginosa ATCC 27853 assessed as reduction in bacterial cell growth measured for 18 hrs by Mueller-Hinton broth based two-fold serial dilution method; assay type: functional
Klebsiella pneumoniae = assay: Antibacterial activity against Klebsiella pneumoniae ATCC 700603 assessed as reduction in bacterial cell growth measured for 18 hrs by Mueller-Hinton broth based two-fold serial dilution method; assay type: functional
[9] = Hemolytic activity in mouse erythrocyte incubated for 1 hr by microplate reader analysis; assay type: toxicity, cell-based; settings: erythrocytes
[10] = system: Mycolicibacterium smegmatis; assay: Antibacterial activity against Mycobacterium smegmatis mc2 155 assessed as bacterial growth inhibition; assay type: functional
Bacillus subtilis [11] = assay: Antibacterial activity against Bacillus subtilis assessed as bacterial growth inhibition; assay type: functional
Pseudomonas aeruginosa [12] = assay: Antibacterial activity against Pseudomonas aeruginosa PAO1 assessed as bacterial growth inhibition; assay type: functional
Escherichia coli [13] = assay: Antibacterial activity against Escherichia coli DH5a assessed as bacterial growth inhibition; assay type: functional
Zymomonas mobilis [14] = assay: Antibacterial activity against Zymomonas mobilis ATCC 10988 assessed as bacterial growth inhibition; assay type: functional
[15] = Hemolytic activity in human erythrocytes measured after 1 hrs by microplate reader analysis; assay type: toxicity, cell-based, Erythrocyte
[16] = system: Mycolicibacterium smegmatis; assay: Antimycobacterial activity against Mycobacterium smegmatis mc2 155 assessed as reduction in bacterial cell growth incubated for 24 hrs by resazurin dye based broth microdilution method; assay type: functional
Bacillus subtilis [17] = assay: Antimicrobial activity against Bacillus subtilis assessed as microbial growth inhibition incubated for 24 hrs by broth micro-dilution method; assay type: functional
Escherichia coli [18] = assay: Antibacterial acitivity against Escherichia coli DH5a assessed as bacterial growth inhibition incubated for 24 hrs by broth micro-dilution method; assay type: functional
Zymomonas mobilis [19] = assay: Antibacterial activity against Zymomonas mobilis ATCC 10988 assessed as reduction in bacterial growth incubated for 24 hrs by broth micro-dilution method; assay type: functional
[20] = Hemolytic activity against human Red blood cells assessed as cell lysis; assay type: toxicity, cell-based, Erythrocyte
Staphylococcus aureus [21] = assay: Antibacterial activity against Staphylococcus aureus; assay type: functional
Escherichia coli [22] = assay: Antibacterial activity against Escherichia coli; assay type: functional

Work on CC[C@H](C)[C@H](NC(=O)[C@H](CCCNC(=N)N)NC(=O)[C@H](CCCCN)NC(=O)[C@H](CC(C)C)NC(=O)[C@H](CC(C)C)NC(=O)CN)C(=O)N[C@@H](CCCCN)C(=O)N[C@@H](CC(C)C)C(=O)N[C@@H](CC(C)C)C(=O)N[C@@H](CC(C)C)C(N)=O (H-GLLKRIKLLL-NH2) yielded an HC50 [1] of 102 µM, an MIC (Staphylococcus aureus [2]) of 6 µM (≈ 6.99 µg/mL) and an MIC (Escherichia coli [3]) of 11.2 µM (≈ 13.1 µg/mL).
For CCCCCCCCCCC(=O)NCC(=O)N[C@@H](CC(C)C)C(=O)N[C@@H](CC(C)C)C(=O)N[C@@H](CCCCN)C(=O)N(C)[C@@H](CCCNC(=N)N)C(=O)N[C@H](C(=O)N(C)[C@@H](CCCCN)C(=O)N[C@H](C(=O)N[C@@H](CC(C)C)C(=O)N[C@@H](CC(C)C)C(N)=O)[C@@H](C)O)[C@@H](C)CC (Undecanoyl-GLLK[NMeR]I[NMeK]TLL-NH2), the HC50 at 1 h [4] was > 256 µM, the MIC (Staphylococcus aureus [5]) was 32 µM (≈ 43.2 µg/mL) and the MIC (Bacillus subtilis [6]) was 8 µM (≈ 10.8 µg/mL). For the same molecule, the MIC (Escherichia coli [7]) was 16 µM (≈ 21.6 µg/mL), the MIC (Pseudomonas aeruginosa [8]) was 8 µM (≈ 10.8 µg/mL) and the MIC (Klebsiella pneumoniae) was 128 µM (≈ 173 µg/mL). The HC50 at 1 h [9] was > 256 µM.
CCCCCCCCCCC(=O)NCC(=O)N[C@@H](CC(C)C)C(=O)N[C@@H](CC(C)C)C(=O)N[C@@H](CCCCN)C(=O)N[C@H](C(=O)N[C@H](C(=O)N[C@@H](CCCCN)C(=O)N[C@@H](CCCNC(=N)N)C(=O)N[C@@H](CC(C)C)C(=O)N[C@@H](CC(C)C)C(N)=O)[C@@H](C)CC)[C@@H](C)CC (Undecanoyl-GLLKIIKRLL-NH2) gave an MIC [10] of 33.3 µM (≈ 44.4 µg/mL), an MIC (Bacillus subtilis [11]) of 167 µM (≈ 222 µg/mL) and an MIC (Pseudomonas aeruginosa [12]) of 33.3 µM (≈ 44.4 µg/mL). The MIC (Escherichia coli [13]) was > 167 µM, the MIC (Zymomonas mobilis [14]) was 12.5 µM (≈ 16.7 µg/mL) and the HC50 at 1 h [15] was 56.8 µM.
With CC[C@H](C)[C@H](NC(=O)[C@H](CCCNC(=N)N)NC(=O)[C@H](CCCCN)NC(=O)[C@H](CC(C)C)NC(=O)[C@H](CC(C)C)NC(=O)CN)C(=O)N[C@@H](CCCCN)C(=O)N[C@@H](Cc1ccccc1)C(=O)N[C@@H](CC(C)C)C(=O)N[C@@H](CC(C)C)C(N)=O (H-GLLKRIKFLL-NH2) the HC50 [1] was 326 µM, the MIC (Staphylococcus aureus [2]) was 6.7 µM (≈ 8.04 µg/mL) and the MIC (Escherichia coli [3]) was 6.7 µM (≈ 8.04 µg/mL).
Work on CC[C@H](C)[C@H](NC(=O)[C@H](Cc1ccccc1)NC(=O)[C@H](CCCCN)NC(=O)[C@H](CC(C)C)NC(=O)[C@H](CC(C)C)NC(=O)[C@@H](N)CCCNC(=N)N)C(=O)N[C@@H](CCCCN)C(=O)N[C@@H](CCCCN)C(=O)N[C@@H](CC(C)C)C(=O)N[C@@H](CC(C)C)C(N)=O (H-RLLKFIKKLL-NH2) yielded an MIC [16] of 15.8 µM (≈ 20.1 µg/mL), an MIC (Bacillus subtilis [17]) of 31.5 µM (≈ 40 µg/mL) and an MIC (Escherichia coli [18]) of 315 µM (≈ 400 µg/mL). The MIC (Zymomonas mobilis [19]) was 7.9 µM (≈ 10 µg/mL) and the HC50 [20] was > 394 µM.
For CC[C@H](C)[C@H](NC(=O)[C@H](Cc1ccccc1)NC(=O)[C@H](CCCCN)NC(=O)[C@H](CC(C)C)NC(=O)[C@H](CC(C)C)NC(=O)[C@@H](N)CCCCN)C(=O)N[C@@H](CCCCN)C(=O)N[C@@H](CCCCN)C(=O)N[C@@H](CC(C)C)C(=O)N[C@@H](CC(C)C)C(N)=O (H-KLLKFIKKLL-NH2), the MIC [16] was 13.3 µM (≈ 16.5 µg/mL), the MIC (Bacillus subtilis [17]) was 35.6 µM (≈ 44.2 µg/mL) and the MIC (Escherichia coli [18]) was 322 µM (≈ 400 µg/mL). The MIC (Zymomonas mobilis [19]) was 8.9 µM (≈ 11.1 µg/mL) and the HC50 [20] was > 403 µM.
Work on CC[C@H](C)[C@H](NC(=O)[C@H](CCCNC(=N)N)NC(=O)[C@H](CCCCN)NC(=O)[C@H](CC(C)C)NC(=O)[C@H](CC(C)C)NC(=O)[C@@H](N)CCCCN)C(=O)N[C@@H](CCCCN)C(=O)N[C@@H](CCCCN)C(=O)N[C@@H](CC(C)C)C(=O)N[C@@H](CC(C)C)C(N)=O (H-KLLKRIKKLL-NH2) yielded an HC50 [1] of 193 µM, an MIC (Staphylococcus aureus [21]) of 22.4 µM (≈ 28 µg/mL) and an MIC (Escherichia coli [22]) of 29.6 µM (≈ 37.1 µg/mL).
For CCCCCCCCCCCCCCC(=O)NCC(=O)N[C@@H](CC(C)C)C(=O)N[C@@H](CC(C)C)C(=O)N(C)[C@@H](CCCCN)C(=O)N[C@@H](CCCNC(=N)N)C(=O)N[C@H](C(=O)N(C)[C@@H](CCCCN)C(=O)N[C@H](C(=O)N[C@@H](CC(C)C)C(=O)N[C@@H](CC(C)C)C(N)=O)[C@@H](C)O)[C@@H](C)CC (Pentadecanoyl-GLL[NMeK]RI[NMeK]TLL-NH2), the HC50 at 1 h [4] was 64 µM, the MIC (Staphylococcus aureus [5]) was 8 µM (≈ 11.2 µg/mL) and the MIC (Bacillus subtilis [6]) was 8 µM (≈ 11.2 µg/mL). It also gave an MIC (Escherichia coli [7]) of 16 µM (≈ 22.5 µg/mL), an MIC (Pseudomonas aeruginosa [8]) of 16 µM (≈ 22.5 µg/mL) and an MIC (Klebsiella pneumoniae) of 32 µM (≈ 45 µg/mL). It also gave an HC50 at 1 h [9] of 64 µM.
With CC[C@H](C)[C@H](NC(=O)[C@H](CCCNC(=N)N)NC(=O)[C@H](CCCCN)NC(=O)[C@H](CC(C)C)NC(=O)[C@H](CC(C)C)NC(=O)CN)C(=O)N[C@@H](CCCCN)C(=O)N[C@@H](CC(N)=O)C(=O)N[C@@H](CC(C)C)C(=O)N[C@@H](CC(C)C)C(N)=O (H-GLLKRIKNLL-NH2) the HC50 [1] was 79.2 µM, the MIC (Staphylococcus aureus [2]) was 10.3 µM (≈ 12 µg/mL) and the MIC (Escherichia coli [3]) was 18.9 µM (≈ 22 µg/mL).

From ChEMBL document CHEMBL5608163, “Structure modification of anoplin for fighting resistant bacteria” (Eur J Med Chem, 2024)
